Laboratory results as given in publication PMC6277767, “Broad and Region-Specific Impacts of the Synthetic Cannabinoid CP 55,940 in Adolescent and Adult Female Mouse Brains” (Frontiers in Molecular Neuroscience, 2018).

Test system: CD1 female mouse brain lipidome
Experiment: Brain-region lipid levels (HPLC/MS/MS lipidomics) 2 h after single i.p. 3 mg/kg CP 55,940 vs vehicle
Type: in vivo
Design: N-arachidonoyl phenylalanine level, Mean / N-stearoyl tryptophan level, Mean / N-stearoyl proline level, Mean / N-stearoyl leucine level, Mean / N-stearoyl phenylalanine level, Mean / N-stearoyl serine level, Mean / N-stearoyl methionine level, Mean: unit: moles per gram
Description: The Bloomington Institutional Animal Care and Use Committee of Indiana University reviewed and approved the animal procedures. Female mice from the CD1 strain were utilized to match our study examining THC’s effects on the brain lipidome ([Leishman et al., 2018]). Mice were given a single i.p. injection of either 3 mg/kg CP or 1:1:18 cremophor:ethanol:saline vehicle (please refer to the section “3 mg/kg CP Is Relevant for Synthetic Cannabinoid Abuse and Has Stronger Effects on the Female Mouse Brain Lipidome During Adolescence” for a justification of dose and use of female mice). Three different age groups were given injections: PND 35 and PND 50 adolescents, and adult mice (PND 113). At least eight mice in each age group received CP and at least eight received vehicle. Matching the THC study time course ([Leishman et al., 2018]), mice were sacrificed via rapid decapitation 2 h after injection. Brains were immediately removed and flash-frozen in liquid nitrogen, and then stored at -80°C until dissections were performed. Brains were dissected on an ice-cold dissection plate into the following regions: STR, HIPP, CER, THAL, CTX, HYP, MID, and STEM. These abbreviations for these brain areas will be used exclusively when discussing the results generated by these specific dissections. Each dissected area was immediately placed in liquid nitrogen and then stored at -80°C until used for lipid extraction.
Tissue extracts were performed as previously described ([Bradshaw et al., 2006]; [Stuart et al., 2013]; [Raboune et al., 2014]; [Leishman et al., 2016a],[b], [2017], [2018]). First, samples were shock frozen in liquid nitrogen, weighed, and transferred to a centrifuge tube. The mass of the largest sample was multiplied by 50 to determine how many milliliters of HPLC-grade methanol (Fisher, Fair Lawn, NJ, United States) to add. Then, samples were spiked with 500 pmol deuterium-labeled NAGly (d8NAGly; Cayman Chemical, Ann Arbor, MI, United States). Samples were placed on ice in darkness for 2 h then individually homogenized and centrifuged at 19,000 × g for 20 min at 20°C. Supernatants were diluted with HPLC water (purified in house) to make a solution of 75% water, 25% supernatant. Lipids were partially purified on C18 solid phase extraction columns (Agilent, Palo Alto, CA, United States). A series of four elutions with 1.5 mL of 60%, 75%, 85%, and 100% methanol were collected ([Stuart et al., 2013]; [Leishman et al., 2016a],[b], [2018]).
As previously described ([Bradshaw et al., 2006]; [Tan et al., 2006]; [Smoum et al., 2010]; [Stuart et al., 2013]; [Tortoriello et al., 2013]; [Raboune et al., 2014]; [Leishman et al., 2016a],[b], [2017], [2018]), samples were analyzed using an Applied Biosystems API 3000 triple quadrupole mass spectrometer with electrospray ionization (Foster City, CA, United States). Using an Agilent XDB-C18 reversed phase analytical column and optimized mobile phase gradients, 20 μL from each elution were chromatographed. Two Shimadzu 10ADvp pumps (Columbia, MD, United States) provided the pressure for gradient elution. Mobile phase A: 20% methanol, 80% water (v/v) and 1 mM ammonium acetate (Sigma, St. Louis, MO, United States). Mobile phase B: 100% methanol, 1 mM ammonium acetate. Every method run began with 0% mobile phase B, reached 100% mobile phase B flowing at 0.2 mL/min, and gradually returned to 0% mobile phase B.
This screening library will be referred to as the lipidome when discussing data from this study. HPLC/MS/MS data were analyzed using Analyst software (Applied Biosystems) ([Bradshaw et al., 2006]; [Tan et al., 2006]; [Stuart et al., 2013]; [Tortoriello et al., 2013]; [Raboune et al., 2014]; [Leishman et al., 2016a],[b], [2017], [2018]). Chromatograms (Supplementary Figure 3) were generated by determining the retention time of analytes from the analytical column with a [M-1] or [M+1] parent peak and a fragmentation peak corresponding to the programmed values. […]

[1] = cerebellum, PND 35, 3 mg/kg CP 55,940
[2] = cerebellum, PND35 WT female mice, 3mg/kg CP 55,940
[3] = cortex, PND 50, 3 mg/kg CP 55,940

Compound: CCCCCCC(C)(C)c1ccc([C@@H]2C[C@H](O)CC[C@H]2CCCO)c(O)c1 [CP 55,940]
- N-oleoyl phenylalanine: Magnitude (x Veh level) [1]: 1.14 x Veh level
- N-palmitoyl leucine: Direction (relative to Veh) [1]: ↑
- N-palmitoyl leucine: Magnitude (x Veh level) [1]: 1.52 x Veh level
- N-palmitoyl phenylalanine: Direction (relative to Veh) [1]: ↑
- N-palmitoyl phenylalanine: Magnitude (x Veh level) [1]: 1.43 x Veh level
- N-palmitoyl proline: Direction (relative to Veh) [1]: ↓
- N-palmitoyl proline: Magnitude (x Veh level) [1]: 0.87 x Veh level
- N-palmitoyl serine: Direction (relative to Veh) [1]: ↓
- N-palmitoyl serine: Magnitude (x Veh level) [1]: 0.81 x Veh level
- N-palmitoyl tyrosine: Direction (relative to Veh) [1]: ↑
- N-palmitoyl tyrosine: Magnitude (x Veh level) [1]: 1.19 x Veh level
- N-palmitoyl valine: Direction (relative to Veh) [1]: ↑
- N-palmitoyl valine: Magnitude (x Veh level) [1]: 1.70 x Veh level
- 2-arachidonoyl glycerol level, Mean [2]: 2.68E-10
- 2-linoleoyl glycerol level, Mean [2]: 1.01E-10
- 2-oleoyl glycerol level, Mean [2]: 7.55E-10
- 2-palmitoyl glycerol level, Mean [2]: 3.01E-10
- 6-ketoPGF1α level, Mean [2]: 8.74E-12
- 11-OH-THC level, Mean [2]: BDL
- 11-nor-9-carboxyTHC level, Mean [2]: BDL
- Arachidonic acid level, Mean [2]: 1.26E-09
- Cannabidiol level, Mean [2]: BDL
- Linoleic acid level, Mean [2]: 4.27E-10
- N- stearoyl valine level, Mean [2]: PISSR
- N-arachidonoyl GABA level, Mean [2]: 9.02E-12
- N-arachidonoyl alanine level, Mean [2]: 5.29E-12
- N-arachidonoyl dopamine level, Mean [2]: BDL
- N-arachidonoyl ethanolamine level, Mean [2]: 1.17E-11
- N-arachidonoyl glycine level, Mean [2]: 2.55E-11
- N-arachidonoyl methionine level, Mean [2]: 8.56E-13
- N-arachidonoyl phenylalanine level, Mean [2]: 1.22E-12
- N-arachidonoyl proline level, Mean [2]: BDL
- N-arachidonoyl serine level, Mean [2]: 5.34E-12
- N-arachidonoyl taurine level, Mean [2]: 7.17E-11
- N-arachidonoyl tryptophan level, Mean [2]: PISSR
- N-arachidonoyl tyrosine level, Mean [2]: 8.32E-13
- N-docosahexaenoyl GABA level, Mean [2]: 2.27E-12
- N-docosahexaenoyl alanine level, Mean [2]: 3.11E-12
- N-docosahexaenoyl ethanolamine level, Mean [2]: 2.05E-11
- N-docosahexaenoyl glycine level, Mean [2]: 1.34E-11
- N-docosahexaenoyl leucine level, Mean [2]: 7.43E-13
- N-docosahexaenoyl methionine level, Mean [2]: 5.43E-13
- N-docosahexaenoyl phenylalanine level, Mean [2]: 1.05E-12
- N-docosahexaenoyl proline level, Mean [2]: BDL
- N-docosahexaenoyl serine level, Mean [2]: 2.79E-11
- N-docosahexaenoyl tryptophan level, Mean [2]: PISSR
- N-docosahexaenoyl tyrosine level, Mean [2]: 1.57E-12
- N-docosahexaenoyl valine level, Mean [2]: BDL
- N-linoleoyl GABA level, Mean [2]: 7.16E-13
- N-linoleoyl alanine level, Mean [2]: 1.26E-12
- N-linoleoyl ethanolamine level, Mean [2]: 2.95E-11
- N-linoleoyl glycine level, Mean [2]: 3.27E-12
- N-linoleoyl leucine level, Mean [2]: 3.65E-13
- N-linoleoyl methionine level, Mean [2]: PISSR
- N-linoleoyl phenylalanine level, Mean [2]: 2.56E-13
- N-linoleoyl proline level, Mean [2]: BDL
- N-linoleoyl serine level, Mean [2]: 4.55E-11
- N-linoleoyl tryptophan level, Mean [2]: PISSR
- N-linoleoyl tyrosine level, Mean [2]: PISSR
- N-linoleoyl valine level, Mean [2]: BDL
- N-nervonoyl valine level, Mean [2]: BDL
- N-oleoyl GABA level, Mean [2]: 3.82E-12
- N-oleoyl alanine level, Mean [2]: 6.55E-12
- N-oleoyl dopamine level, Mean [2]: BDL
- N-oleoyl ethanolamine level, Mean [2]: 7.98E-11
- N-oleoyl glycine level, Mean [2]: 1.52E-11
- N-oleoyl leucine level, Mean [2]: 1.49E-12
- N-oleoyl methionine level, Mean [2]: 1.2E-12
- N-oleoyl phenylalanine level, Mean [2]: 1.43E-12
- N-oleoyl proline level, Mean [2]: 3.42E-13
- N-oleoyl serine level, Mean [2]: 2.53E-10
- N-oleoyl tryptophan level, Mean [2]: 1.48E-13
- N-oleoyl tyrosine level, Mean [2]: 7.24E-13
- N-oleoyl valine level, Mean [2]: PISSR
- N-palmitoyl GABA level, Mean [2]: 7.17E-12
- N-palmitoyl alanine level, Mean [2]: 7.87E-12
- N-palmitoyl ethanolamine level, Mean [2]: 3.88E-11
- N-palmitoyl glycine level, Mean [2]: 2.65E-11
- N-palmitoyl leucine level, Mean [2]: 2.75E-12
- N-palmitoyl methionine level, Mean [2]: 1.86E-12
- N-palmitoyl phenylalanine level, Mean [2]: 2.82E-12
- N-palmitoyl proline level, Mean [2]: 7E-13
- N-palmitoyl serine level, Mean [2]: 5.23E-11
- N-palmitoyl tryptophan level, Mean [2]: 3.12E-13
- N-palmitoyl tyrosine level, Mean [2]: 1.58E-12
- N-palmitoyl valine level, Mean [2]: 1.73E-13
- N-stearoyl GABA level, Mean [2]: 5.88E-12
- N-stearoyl alanine level, Mean [2]: 1.31E-11
- N-stearoyl ethanolamine level, Mean [2]: 1.11E-11
- N-stearoyl glycine level, Mean [2]: 1.37E-11
- N-stearoyl leucine level, Mean [2]: 9.56E-13
- N-stearoyl methionine level, Mean [2]: 1.59E-12
- N-stearoyl phenylalanine level, Mean [2]: 1.92E-12
- N-stearoyl proline level, Mean [2]: 3.97E-13
- N-stearoyl serine level, Mean [2]: 2.93E-11
- N-stearoyl tryptophan level, Mean [2]: 6.79E-13
- N-stearoyl tyrosine level, Mean [2]: 8.44E-14
- Oleic acid level, Mean [2]: 1.03E-09
- PGE2 level, Mean [2]: 4.01E-10
- PhosphoLEA level, Mean [2]: 1.04E-11
- THC level, Mean [2]: BDL
- 2-linoleoyl glycerol Direction (relative to Veh) [3]: ↓
- 2-oleoyl glycerol, Direction (relative to Veh) [3]: ↓
